Data set [1] deals with Rats with calcium chloride induced arrhythmias. The experiment in a line: Calcium chloride induced arrhythmias in narcotised rats (prophylactic i.v. administration). Format: in vivo. The settings on record: control 10.9 min. The source says: By means of the intravenous infusion of a calcium chloride solution, […] induced in narcotised rats which, after termination of the infusion, continue for a certain period of time (modification of the method described by Malinow et al., Arch. Int. Pharmacodyn, 102, 266/1955). This arrhythmic phase is shortened by the prophylactic administration of antiarrhythmic drugs. […] The results of the experiments with calcium chloride induced arrhythmias on rats are summarized in the following Table I. The average period of arrhythmia is calculated from experiments with at least 10 animals.

A short description of a further data set: in vivo. The settings on record: mouse, po. As for the experimental part:
The compounds according to the present invention are administered intragastrally to male mice (NMRI) with a body weight of from 20 to 25 g. Each dosage group consists of 4 animals. The LD50 values are determined after having observed the animals for 7 days.

Data set [2] concerns dogs with coronary ligature. The experiment in a line: Coronary ligature on dogs (period of sinus rhythm from ECG). The class given is in vivo. An excerpt:
Using narcotised dogs, after thoracotomy, a coronary artery (side branch of the R. interventr. post. or of the R. circumflexus) is ligatured (see. A. S. Harris, Circulation, 1, 1318/1950). The heart rhythm disturbances which occur as a result thereof are, on the day following the operation, recorded on the awake animals and treated with the compounds according to the present invention by intragastral and intravenous administration. Procainamide is used as a positive standard. From the ECG, the time is determined in which, after administration of the test compound, a sinus rhythm can be recognized.
The compounds of Examples 1 (Table III), 4 (Table IV) and 10 (Table V) were tested on dogs with a coronary ligature. All the compounds were, in each case, tested on at least 5 animals.

Data set [3] relates to guinea pig left ventricle. The experiment in a line: Refractory time of electrically stimulated guinea pig left ventricles (organ bath). As for the experimental part:
The left ventricles of guinea pig hearts are electrically stimulated in an organ bath, the amplitude of contraction being recorded. By means of a second stimulus, the time is determined below which the heart muscle no longer reacts with a separately resolvable contraction. This time is defined as the refractory time.
The following Table II contains information concerning the maximum tested compound concentrations, as well as the average prolongation of the refractory time measured at this concentration in comparison with the initial value of, in each case, at least 6 experiments.

For the next data set, the system named is rabbit eye. The experiment in a line: Local anesthetic action on the rabbit eye (corneal reflex). Format: in vivo, rabbits. The conditions noted are these: for Period of Action: observation discontinued after 60 minutes. Here is the method:
The corneal reflex is induced in rabbits using a horse hair which bends with a pressure of about 250 mg (modification of the method described by M. von Frey, Beitrage zur Physiologie des Schmerzsinns, Vehr. d. Kgl. Sachs, Ges. d. Wiss. zu Leipzig, Math.-phys. Kl., 46, 185/1894; Untersuchungen uber die Sinnesfunktionen der menschlichen Haut, Leipzig, 1896). After instillation of local anesthetics into the conjunctival sac of the eye, the number of impacts with the horse hair which result in closure of the eyelid is increased. At intervals of 4 minutes, in each case a maximum of 100 successive impacts are carried out and such an action is taken as being 100%. The period of investigation is at most 60 minutes. The action of the compounds according to the present invention is compared with that of tetracaine and procainamide.
The following Table VII contains the results of the experiments on the rabbit eye. There are also given, in addition to the concentrations of the test solutions which were instilled into the conjunctival sac, the actions of the compounds in % (see description of the method), as well as their period of action. In each case, the observations were discontinued after 60 minutes.

Where [4] appears, read: Oryctolagus cuniculus, topical, concentration 0.5 %.

Some results are limits rather than exact numbers.

Take `COc1ccc2c(c1)-c1c(ccc(OC)c1O)CC(CCc1ccccc1)N(C)CC2` (single isomer, unassigned; (+)) [Example 10, (+)-2,12-Dimethoxy-1-hydroxy-7-methyl-6-phenethyl-5,6;8,9-tetrahydro-7H-dibenz(d,f)azonine]: the “average period of arrhythmia” value in data set [1] (2.5 mg/kg I.V.) is 5.4 min. The compound also registered an LD50 at 168 h in “in vivo” of 600 mg/kg. For the same compound, the “average period of eurhythmia” value in data set [2] (2 mg/kg i.v.) worked out at 40 min; in data set [2] (5 mg/kg i.g.), 105 min; in data set [2] (10 mg/kg i.g.), 169 min; in data set [2] (40 mg/kg i.g.), 185 min. Moreover, the “average prolongation of the refractory time” value (shortened to “average prolongation”) in data set [3] (4.0 × 10^-6 g/ml in the bath) came to 44 ms. The compound also registered an inhibition in vivo at 1 % with rabbit eye (Oryctolagus cuniculus, topical, concentration 1.0 %) of 100%. Also, in the data set with rabbit eye (concentration 1.0 %), the “Period of Action” value is over 60 min.
As for `COc1ccc2c(c1)-c1c(ccc(OC)c1O)CC(Cc1ccccc1)N(C)CC2` (single isomer, unassigned; (-)) [Example 1, (-)-6-Benzyl-2,12-dimethoxy-1-hydroxy-7-methyl-5,6;8,9-tetrahydro-7H-dibenz(d,f)azonine], the “average period of arrhythmia” value in data set [1] (2.5 mg/kg I.V.) worked out at 4.0 min. In the data set “in vivo”, this compound displayed an LD50 at 168 h of 680 mg/kg. The “average period of eurhythmia” value in data set [2] (4 mg/kg i.v.) turned out to be 62 min; in data set [2] (10 mg/kg i.g.), 49 min; in data set [2] (15 mg/kg i.g.) it was 99 min; in data set [2] (20 mg/kg i.g.), 105 min; in data set [2] (25 mg/kg i.g.), 198 min. Besides, in data set [3] (8.0 × 10^-6 g/ml in the bath), the “average prolongation” value is reported as 43 ms. The inhibition in vivo at 0.1 % with rabbit eye (Oryctolagus cuniculus, topical, concentration 0.1 %) is 89%. Also, the inhibition in vivo at 0.5 % in the data set with rabbit eye (setting [4]) is 100%. In addition, the figures for the “Period of Action” value in the data set on rabbit eye (concentration 0.1 %) and in the data set on rabbit eye (concentration 0.5 %) were “about 49 Min” and over 60 min, respectively.
For the compound `COc1ccc2c(c1)-c1c(ccc(OC)c1O)CC(Cc1ccccc1Cl)N(C)CC2` (single isomer, unassigned; (-)) [Example 4, (-)-6-(2'-Chlorobenzyl)-2,12-dimethoxy-hydroxy-7-methyl-5,6;8,9-tetrahydro-7H-dibenz(d,f)azonine], the results for the “average period of arrhythmia” value in data set [1] (5 mg/kg I.V.) and in data set [1] (10 mg/kg I.V.) were 4.6 min and 2.3 min, respectively. The LD50 at 168 h in the data set “in vivo” was 1200 mg/kg. Besides, the “average period of eurhythmia” value in data set [2] (4 mg/kg i.v.) was 68 min; in data set [2] (40 mg/kg i.g.), 91 min; in data set [2] (60 mg/kg i.g.), 103 min; in data set [2] (80 mg/kg i.g.), 139 min. The “average prolongation” value in data set [3] (1.6 × 10^-5 g/ml in the bath) amounted to 21 ms.
With `CCN(CC)CCNC(=O)c1ccc(N)cc1` [procainamide, reference compound], the “average period of arrhythmia” value in data set [1] (10 mg/kg I.V.) is 7.3 min. In addition, in “in vivo”, the LD50 at 168 h was determined as 1200 mg/kg. The “average period of eurhythmia” value in data set [2] (10 mg/kg i.v.) was 19 min. Also, the “average prolongation” value in data set [3] (6.4 × 10^-5 g/ml in the bath) was found to be 7 ms. Moreover, the inhibition in vivo at 0.5 % in the data set on rabbit eye (setting [4]) is 1%. Moreover, the inhibition in vivo at 2 % in the data set with rabbit eye (Oryctolagus cuniculus, topical, concentration 2.0 %) is 1%. In addition, the “Period of Action” value with rabbit eye (concentration 0.5 %) and in the data set on rabbit eye (concentration 2.0 %) was 0 min in each case. In the data set with rabbit eye (versus procainamide and tetracaine), the “local anesthetic activity (in words)” value was “inactive”.
